From publication PMC4723269 (Archives of biochemistry and biophysics, 2015)

Molecular target: T1, Mtm1p (YGR257cp) (Saccharomyces cerevisiae, UniProt P53320)
T1 sequence (P53320 1-366): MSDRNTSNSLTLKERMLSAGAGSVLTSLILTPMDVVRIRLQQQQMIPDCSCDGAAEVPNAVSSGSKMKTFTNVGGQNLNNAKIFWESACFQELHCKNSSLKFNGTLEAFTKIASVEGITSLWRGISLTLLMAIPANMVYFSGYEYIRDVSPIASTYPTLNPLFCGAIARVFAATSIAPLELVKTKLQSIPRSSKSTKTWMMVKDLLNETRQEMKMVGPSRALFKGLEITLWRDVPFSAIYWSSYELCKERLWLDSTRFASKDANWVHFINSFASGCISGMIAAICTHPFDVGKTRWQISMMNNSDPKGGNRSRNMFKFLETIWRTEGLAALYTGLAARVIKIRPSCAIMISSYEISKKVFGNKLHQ
Test: stoichiometric tryptophan fluorescence quenching titration
Assay type: binding

- Kd: 1900 ± 300 nM
SMILES: Cc1ncc(COP(=O)(O)O)c(C=O)c1O [PLP, pyridoxal 5′-phosphate]
